Measured values taken from paper PMC4925217 (FEBS letters, 2016).

Columns and labels:
[1] = target: T1, ScRR (ScRR1 with ScRR2•ScRR4) (Saccharomyces cerevisiae, UniProt P21524); test: [3H]CDP reduction assay, borate chromatography, isotope counting; assay type: biochemical; conditions: ATP effector, 0.05 to 1 mM CDP (hexamer); labelled compound; C-site
T1 sequence (P21524 1-888): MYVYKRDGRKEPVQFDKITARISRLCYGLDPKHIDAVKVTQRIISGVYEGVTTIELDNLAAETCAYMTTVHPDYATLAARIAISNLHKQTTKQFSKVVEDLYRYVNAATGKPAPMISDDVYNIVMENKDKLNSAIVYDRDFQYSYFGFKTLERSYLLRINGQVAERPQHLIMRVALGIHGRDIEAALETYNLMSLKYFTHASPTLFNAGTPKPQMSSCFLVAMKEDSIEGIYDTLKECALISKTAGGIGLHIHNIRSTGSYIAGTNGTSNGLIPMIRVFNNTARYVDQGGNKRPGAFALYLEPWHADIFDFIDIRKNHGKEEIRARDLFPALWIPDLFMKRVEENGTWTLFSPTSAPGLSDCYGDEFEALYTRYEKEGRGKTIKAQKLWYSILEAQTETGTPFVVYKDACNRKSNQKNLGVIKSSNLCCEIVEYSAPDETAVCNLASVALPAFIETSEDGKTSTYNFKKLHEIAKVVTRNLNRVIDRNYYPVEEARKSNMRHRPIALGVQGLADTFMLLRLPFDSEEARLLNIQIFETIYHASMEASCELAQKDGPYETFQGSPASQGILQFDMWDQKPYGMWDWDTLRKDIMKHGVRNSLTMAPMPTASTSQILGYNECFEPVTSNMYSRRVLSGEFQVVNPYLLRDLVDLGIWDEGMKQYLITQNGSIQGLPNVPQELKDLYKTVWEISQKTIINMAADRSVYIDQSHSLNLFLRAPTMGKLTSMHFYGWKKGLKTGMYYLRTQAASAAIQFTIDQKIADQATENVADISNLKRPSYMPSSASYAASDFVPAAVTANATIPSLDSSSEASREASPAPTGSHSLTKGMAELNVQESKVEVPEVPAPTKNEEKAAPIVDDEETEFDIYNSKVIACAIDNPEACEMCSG
T1 sequence (P09938 1-399 partner): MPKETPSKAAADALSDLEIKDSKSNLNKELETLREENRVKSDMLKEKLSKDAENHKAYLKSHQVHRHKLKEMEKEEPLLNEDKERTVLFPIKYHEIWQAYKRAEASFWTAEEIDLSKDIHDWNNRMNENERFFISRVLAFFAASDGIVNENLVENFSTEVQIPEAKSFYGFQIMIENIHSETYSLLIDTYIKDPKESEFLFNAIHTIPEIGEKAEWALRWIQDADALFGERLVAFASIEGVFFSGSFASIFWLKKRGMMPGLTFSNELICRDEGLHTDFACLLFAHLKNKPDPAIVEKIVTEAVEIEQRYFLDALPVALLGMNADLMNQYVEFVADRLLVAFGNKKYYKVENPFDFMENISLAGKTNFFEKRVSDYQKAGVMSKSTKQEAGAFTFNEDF
T1 sequence (P49723 1-345 partner): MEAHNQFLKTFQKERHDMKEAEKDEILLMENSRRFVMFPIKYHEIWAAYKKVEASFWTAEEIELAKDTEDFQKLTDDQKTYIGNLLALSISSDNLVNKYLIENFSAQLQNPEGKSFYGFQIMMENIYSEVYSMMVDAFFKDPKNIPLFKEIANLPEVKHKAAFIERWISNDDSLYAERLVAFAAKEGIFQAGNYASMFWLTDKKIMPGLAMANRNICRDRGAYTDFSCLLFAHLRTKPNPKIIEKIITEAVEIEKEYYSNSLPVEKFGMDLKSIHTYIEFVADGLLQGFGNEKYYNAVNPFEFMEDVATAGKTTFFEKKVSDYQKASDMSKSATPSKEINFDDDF

[2] = target: T1, ScRR (ScRR1 with ScRR2•ScRR4); test: NDP reduction assay; assay type: biochemical; conditions: read-out: % inhibition at 20 μM

SMILES	[3H]CDP reduction assay, borate chromatography, isotope counting [1]	inhibition at 20 µM [2]
Nc1ccn([C@@H]2O[C@H](COP(=O)(O)OP(=O)(O)O)[C@@H](O)[C@H]2O)c(=O)n1 [CDP]	When ATP/CDP was used as the effector-substrate pair, [^3H]CDP concentrations were varied	
Nc1ncnc2c1ncn2[C@H]1C[C@H](O)[C@@H](COP(=O)(O)OP(=O)(O)OP(=O)(O)O)O1 [dATP]		~50%
